# Earlier results, collected in patent publication US20190298669A1 (priority 2018, published 2019).
# What was measured:
# [1] = tested on: viral RNP complexes; conditions: Pleschka et al., 2001; cited from earlier work
# [2] = human, in vivo; cited from earlier work
SMILES,nuclear cytoplasmic transport of viral RNP complexes [1],patients experiencing nausea and vomiting [2]
N#CC(=C(/N)Sc1ccccc1N)/C(C#N)=C(\N)Sc1ccccc1N [U0126],leads to a blockade,
CCOC(=O)C1=C[C@@H](OC(CC)CC)[C@H](NC(C)=O)[C@@H](N)C1 [oseltamivir],,10-15%
